Active and inactive are the calls of the source.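 How the source made its calls: active means fitted curve reaches 40% activation below the top valid tested dose, in every test run; inconclusive means test runs disagree on the call; inactive means the rest, including effects opposite to the expected direction.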

The first experiment relates to HUVEC E-selectin immunostaining, imaging, 16 h. The experiment can be described thus: E-selectin inducers in HUVECs, dose response, imaging, HUVEC, cherry-picked samples (AID 977605).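 Further: signal is the share of imaged cells scored positive for E-selectin.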
Conditions: not given
For the compound `Cc1cc2cc(CNC(=O)Nc3ccc(Cl)c(Cl)c3)ccc2n1C`, the AC40 is 10.1 µM. In the case of `Cc1ccc(S(=O)(=O)NCc2ccc3c(c2)cc(C)n3C)cc1`, the AC40 was 13.6 µM. Turning to `Cc1cc2c(SCc3ccccc3Cl)nc(N)nc2nc1C`, the AC40 is 11.4 µM. On the same count and under the same terms, the result for `FC(F)(F)c1ccc2c(c1)N1CCCC1CN2` (stereo not given) reads 7.71 µM; that for `COc1ccc(CNC(=O)c2cc3c(c(-c4cccc(-c5cccc(C#N)c5)c4)n2)[C@H](CCO)N([S@@](=O)C(C)(C)C)C3)cc1`, 19.4 µM. Take `COc1ccc(NC(=O)N(C)C[C@H]2Oc3ccc(NS(=O)(=O)c4cccs4)cc3C(=O)N([C@H](C)CO)C[C@@H]2C)cc1`: the AC40 is 17.7 µM. On to `CO[C@@H]1CN(C)C(=O)c2ccc(NC(=O)Nc3ccc(F)cc3)cc2OC[C@@H](C)N(C(=O)c2ccc(F)cc2)C[C@H]1C`, for which the AC40 is 12.4 µM. On to `Cc1cc2cc(CNC(=O)Nc3cccc(Cl)c3)ccc2n1C`, for which the AC40 was 10.8 µM.

Consider `Cc1cc(C)c(S(=O)(=O)NCCn2c(C)cc3ccccc32)c(C)c1`, for which the AC40 is 14.3 µM. Same read-out and setting: under `CC(C)(C)[S@](=O)N1Cc2cc(C(=O)N[C@H]3CCN(Cc4ccccc4)C3)nc(-c3cccc(-c4ccncc4)c3)c2[C@@H]1CCO` stands 13.2 µM. With `Cc1cccc(-c2cc(N3CCCN(C)CC3)n3nccc3n2)c1`, the AC40 was 5.24 µM. On to `Cc1cccc(NC(=O)NCc2ccc3c(c2)cc(C)n3C)c1`, for which the AC40 is 12 µM.

As to `COc1cccc(CNC(=O)c2cc3c(c(-c4cccc(-c5ccc(C#N)cc5)c4)n2)[C@H](CCO)N([S@@](=O)C(C)(C)C)C3)c1`, the AC40 was 14.7 µM. As to `COc1ccc(Nc2ccccc2N)cc1`, the AC40 was 5.67 µM. Still for that read-out and setting: the result for `Cc1cc2ccccc2n1CCNC(=O)COc1ccc2ccccc2c1` reads 11.3 µM; that for `O=C(C[C@@H]1CC[C@H]2[C@@H](COC[C@H](O)CN2C(=O)c2ccc(F)cc2)O1)Nc1ccc(-c2ccccc2)cc1`, 8 µM; that for `COc1ccc(S(=O)(=O)N(C)C[C@@H]2OCCCC[C@H](C)Oc3ccc(NC(=O)Nc4cccc5ccccc45)cc3C(=O)N([C@H](C)CO)C[C@H]2C)cc1`, 17.7 µM.

Tested on in the next experiment: not listed separately
The description is as above. As to conditions: HUVEC E-selectin immunostaining, at 19.5 µM (top of the series).
With `C=COCCn1c(C)c(C(C)=O)c2cc(O)ccc21`, the activation was 0.265% (inactive).

Still in this experiment, the particulars now being: HUVEC E-selectin immunostaining, at 19.5 µM (top of the series), percent of TNF-alpha response over vehicle.
Regarding `O=C(NC(=S)N1CCN(c2ccc([N+](=O)[O-])cc2)CC1)c1ccccc1`, the activation was -0.117% (inactive). On the same count and under the same terms, under `Cc1cccc(CC(=O)Nc2sc(C(C)C)cc2C(=O)N2CCOCC2)c1` stands 0.007% (inactive).

In the case of `C[C@@H]1CN([C@H](C)CO)C(=O)c2cc(NC(=O)CCCCCC(=O)Nc3ccccc3N)ccc2O[C@@H]1CN(C)C(=O)Nc1ccc2c(c1)OCO2`, the activation is -0.103% (inactive). Still for that read-out and setting: under `CC(C)NC(=O)N(C)C[C@@H]1Oc2ccc(NC(=O)CCN3CCOCC3)cc2C(=O)N([C@H](C)CO)C[C@H]1C` stands -0.003% (inactive); under `C[C@H](CO)N1C[C@H](C)[C@@H](CN(C)C(=O)NC2CCCCC2)Oc2c(NC(=O)Nc3ccc(F)cc3)cccc2C1=O`, 0.219% (inactive). Still for that read-out and setting: the result for `Cc1ccc(S(=O)(=O)NC(Cc2ccccc2)C(=O)O)cc1C` (stereo not given) reads -0.133% (inactive).

`C=CCN(C(=O)c1csnn1)C(C(=O)NC1CCCCC1)c1ccccc1` (stereo not given): the activation is -0.215% (inactive). On the same count and under the same terms, the result for `Cc1noc(C)c1NC(=O)N(C)C[C@H]1Oc2ccc(NC(=O)c3ccncc3)cc2C(=O)N([C@H](C)CO)C[C@H]1C` reads 0.014% (inactive); that for `C[C@H]1CN([C@@H](C)CO)C(=O)c2cccc(NS(C)(=O)=O)c2O[C@H]1CN(C)S(C)(=O)=O`, 0.973% (inactive); that for `CC(=O)Nc1ccc(S(=O)(=O)NNc2cccc(C)c2)cc1`, 0.281% (inactive). The same measure, in the same setting: the result for `Cc1[nH]c(C)c(S(=O)(=O)N2CCCCC2)c1C(=O)N1CCCC1` reads -0.044% (inactive); that for `Cc1c(N(C)C(=O)COc2ccc3ccccc3c2)c(=O)n(-c2ccccc2)n1C`, -0.279% (inactive). Still for that read-out and setting: the result for `COC(=O)c1cc(S(=O)(=O)NCC2CCN(CCc3cccs3)CC2)c[nH]1` reads 0.021% (inactive); that for `C[C@@H]1CN([C@H](C)CO)C(=O)c2cc(NS(=O)(=O)c3cn(C)cn3)ccc2O[C@H]1CN(C)C(=O)Nc1ccc2c(c1)OCO2`, 0.041% (inactive). Consider `Cc1cc(C(=O)Nc2ccc(C)c(C)c2)n(-c2ccccc2)n1`, for which the activation is 0.076% (inactive). With `C[C@H]1CN([C@@H](C)CO)C(=O)c2cc(NS(C)(=O)=O)ccc2O[C@@H]1CN(C)Cc1ccc(Cl)c(Cl)c1`, the activation is -0.025% (inactive).

For the compound `COc1ccc(S(=O)(=O)Nc2ccc3c(c2)C(=O)N([C@H](C)CO)C[C@@H](C)[C@@H](CN(C)C(=O)Nc2cccc4ccccc24)O3)cc1`, the activation was 1.7% (inactive).

(Values after PubChem BioAssay AID977605 (Broad Institute, 2014).)
